Results as given in ChEMBL document CHEMBL5579800, “Further structural optimization and SAR study of sungsanpin derivatives as cell-invasion inhibitors” (Bioorg Med Chem Lett, 2024).
Calls of active or inactive are those of the source. The calls are words filed in the database; no cut-off is given here. Where a SMILES comes first, the peptide text is derived from it.

Experiments:
A549 [1] = assay: Cytotoxicity against human A549 cells assessed as cell viability upto 100 uM by CCK8 assay; type: toxicity, cell-based; conditions: a549, 100 µM
A549 [2] = assay: Inhibition of cell invasion in human A549 cells; type: functional, cell-based; conditions: dose 25-100 µM
A549 [3] = assay: Inhibition of cell invasion in human A549 cells by microscopy; type: functional, cell-based; conditions: dose 25-100 µM
[4] = Stability in human serum assessed as compound remaining measured after 24 hrs by HPLC analysis; type: ADME, cell-free; conditions: read-out: Stability
[5] = Stability in human serum assessed as half life by HPLC analysis; type: ADME, cell-free
A549 [6] = assay: Upregulation of TIMP-1 level in human A549 cells at 100 uM by Western blot analysis; type: functional, cell-based
A549 [7] = assay: Upregulation of TIMP-2 level in human A549 cells at 100 uM by Western blot analysis; type: functional, cell-based
A549 [8] = assay: Upregulation of TIMP-1 mRNA level in human A549 cells at 100 uM by qPCR analysis; type: functional, cell-based
A549 [9] = assay: Upregulation of TIMP-2 mRNA level in human A549 cells at 100 uM by qPCR analysis; type: functional, cell-based
A549 [10] = assay: Inhibition of cell invasion in human A549 cells at 100 uM; type: functional, cell-based
A549 [11] = assay: Inhibition of cell invasion in human A549 cells at 100 uM by microscopy; type: functional, cell-based
A549 [12] = assay: Downregulation of MMP-9 level in human A549 cells at 100 uM by Western blot analysis; type: functional, cell-based
A549 [13] = assay: Downregulation of MMP-2 level in human A549 cells at 100 uM by Western blot analysis; type: functional, cell-based
A549 [14] = assay: Inhibition of cell invasion in human A549 cells at 25 to 100 uM; type: functional, cell-based; conditions: dose 25-100 µM

In the case of `CC(C)C[C@@H]1NC(=O)[C@H](C)NC(=O)[C@H](Cc2ccccc2)NC(=O)[C@H](CO)NC(=O)[C@H](CC(=O)O)NC(=O)[C@H](CC(C)C)NC(=O)[C@H](Cc2c[nH]c3ccccc23)NC(=O)[C@H](CO)NC1=O` (cyclo(ALSWLDSF)), the Activity (A549 [1]) was “Non-Toxic”, the inhibition (A549 [2]) was “Dose-Dependent Effect” and the inhibition (A549 [3]) was “Dose-Dependent Effect”. The remaining at 24 h [4] was greater than 80%, the half-life [5] was greater than 24 h and the Activity (A549 [6]) was “Active”. The Activity (A549 [7]) was “inactive”, the Activity (A549 [8]) was “Active” and the Activity (A549 [9]) was “Active”.

In the case of `CC(C)C[C@@H]1NC(=O)CNC(=O)[C@H](Cc2ccccc2)NC(=O)[C@H](CO)NC(=O)[C@H](CC(=O)O)NC(=O)[C@H](CC(C)C)NC(=O)[C@H](Cc2c[nH]c3ccccc23)NC(=O)[C@H](CO)NC1=O` (cyclo(DSFGLSWL)), the Activity (A549 [1]) was “Non-Toxic”.

With `CC(C)C[C@@H]1NC(=O)[C@H](CCCCN)NC(=O)[C@H](Cc2ccccc2)NC(=O)[C@H](CO)NC(=O)[C@H](CC(=O)O)NC(=O)[C@H](CC(C)C)NC(=O)[C@H](Cc2c[nH]c3ccccc23)NC(=O)[C@H](CO)NC1=O` (cyclo(DSFKLSWL)) the Activity (A549 [1]) was “Non-Toxic”.

In the case of Ac-DSFGLSWL-NH2, the Activity (A549 [1]) was “Non-Toxic” and the inhibition (A549 [10]) was “inactive”.

For H-ASFGLSWL-OH, the Activity (A549 [1]) was “Non-Toxic” and the inhibition (A549 [10]) was “inactive”.

In the case of H-DAFGLSWL-OH, the Activity (A549 [1]) was “Non-Toxic” and the inhibition (A549 [10]) was “inactive”.

For H-DSAGLSWL-OH, the Activity (A549 [1]) was “Non-Toxic”.

For H-DSFALSWL-OH, the Activity (A549 [1]) was “Non-Toxic”, the inhibition (A549 [10]) was “Active” and the inhibition (A549 [2]) was “Dose-Dependent Effect”. For the same compound, the inhibition (A549 [11]) was “Active”, the remaining at 24 h [4] was roughly 23% and the Activity (A549 [6]) was “Active”. For the same compound, the Activity (A549 [7]) was “inactive”, the Activity (A549 [12]) was “Active” and the Activity (A549 [8]) was “Active”. The Activity (A549 [9]) was “Active”.

In the case of H-DSFDLSWL-OH, the Activity (A549 [1]) was “Non-Toxic”.

For H-DSFGASWL-OH, the Activity (A549 [1]) was “Non-Toxic” and the inhibition (A549 [10]) was “inactive”.

With H-DSFGLAWL-OH the Activity (A549 [1]) was “Non-Toxic”.

In the case of H-DSFGLSAL-OH, the Activity (A549 [1]) was “Non-Toxic” and the inhibition (A549 [10]) was “inactive”.

In the case of H-DSFGLSWA-OH, the Activity (A549 [1]) was “Non-Toxic” and the inhibition (A549 [10]) was “inactive”.

In the case of H-DSFGLSWL-OH, the Activity (A549 [1]) was “Non-Toxic”.

For H-DSFKLSWL-OH, the Activity (A549 [1]) was “Non-Toxic”, the inhibition (A549 [2]) was “Dose-Dependent Effect” and the Activity (A549 [6]) was “Active”. The Activity (A549 [7]) was “inactive”, the Activity (A549 [13]) was “Active” and the Activity (A549 [8]) was “Active”. For the same compound, the Activity (A549 [9]) was “inactive”.

For H-DSFLLSWL-OH, the Activity (A549 [1]) was “Non-Toxic” and the inhibition (A549 [14]) was “inactive”.

In the case of H-DSFRLSWL-OH, the Activity (A549 [1]) was “Non-Toxic”.

With H-DSFVLSWL-OH the Activity (A549 [1]) was “Non-Toxic”, the inhibition (A549 [14]) was “Active” and the Activity (A549 [6]) was “Active”. For the same compound, the Activity (A549 [7]) was “inactive”, the Activity (A549 [13]) was “Active” and the Activity (A549 [8]) was “Active”. For the same compound, the Activity (A549 [9]) was “inactive”.
